Test system: primary cultures of osteoblasts from fetal rat calvarias
Test: in vitro DNA-synthesis assay
Assay type: cell-based
Experimental: Compounds of general formula (I) were tested in an in vitro DNA-synthesis assay. The cells used were primary cultures of osteoblasts from fetal rat calvarias. The experiments were performed in an analogous manner as published in Pfeilschifter et al., Endocrinology 126, 703 (1990).

Substance	Biological activity in % compared to control (100%) (0.001 μg/ml)	Biological activity in % compared to control (100%) (0.01 μg/ml)	Biological activity in % compared to control (100%) (0.1 μg/ml)	Biological activity in % compared to control (100%) (1.0 μg/ml)	Biological activity in % compared to control (100%) (10 μg/ml)
Ada-Ava-W	116%	152%	182%	183%	229%
Ada-Aba-W	173%	184%	228%	223%	261%
Ada-SAW	122%	148%	199%	162%	188%

— patent US6429288B1, “Peptides containing an arginine mimetic for the treatment of bone metabolic disorders, their production, and drugs containing these compounds” (Roche Diagnostics GmbH, priority 1997, dated 2002)
